Measured values published in patent US11912693B2, “Compounds for modulating S1P1 activity and methods of using the same” (TREVENA, INC., priority 2017, dated 2024).

Columns and labels:
[1] = molecular target: sphingosine-1-phosphate receptor 5 (S1P5) (Homo sapiens (Human), UniProt Q9H228); experiment: Inhibition of cAMP production (HTRF), S1P5 CHO-K1 cells; format: cell-based; conditions: for hS1P5 cAMP pEC50: inhibition of cAMP production
Description: (§1) Stable clonal Chinese hamster ovary K1 (CHO-K1) cells co-expressing EA-β-arrestin2 and the human sphingosine-1-phosphate receptor 2 (NM_004230.3, S1P2), human sphingosine-1-phosphate receptor 3 (NM_005226, S1P3) and sphingosine-1-phosphate receptor 5 (NM_001166215.1, S1P5) with a C-terminal Prolink™ tag were purchased from DiscoverX corporation (S1P2: Cat #93-0256C2, S1P3: Cat #93-0217C2, S1P5: Cat #93-0583C2).
(§2) Cell lines were cultured in AssayComplete™ Media 6 (DiscoverX Corporation, Cat #: 920018GF2) at 37° C. and 5% CO2 in a humidified CO2 and temperature-controlled incubator. To begin assay plating, cells were washed with dulbecco's phosphate buffered saline (CellGro, Cat #: 21-031-CV) and lifted from the culturing flask by incubation (37° C., 5 min) with CellStripper (Cellgro, Cat #: 25-056-CI). […] Plated cells were incubated overnight at 37° C. and 5% CO2 in a humidified CO2 and temperature-controlled incubator.
(§3) S1P3 and S1P5 Agonist-promoted G-protein responses were determined by measuring changes in intracellular cAMP using the HTRF® cAMP HiRange kit (CisBio, Cat #: 62AM6PEJ) based on time-resolved fluorescence resonance energy transfer (TR-FRET) technology. […] Following a 30-minute room temperature incubation the components of the cAMP HiRange kit were added as per the manufacturer's instructions. After an hour incubation at room temperature, plates were analyzed by a BMG PheraStar microplate reader.
(§4) The tables below include the efficacy of the compound as compared to a positive control, referred to as “SPAN”. These values are normalized to fingolimod, a known agonist of the sphingosine-1-phosphate 3 and 5 receptor or CYM5520, a known agonist of the sphingosine-1-phosphate 2 receptor. The tables also include potency values (pEC50) for modulating discrete receptor-mediated activities (inhibition of cAMP production or inositol monophosphate accumulation).

[2] = molecular target: T1, human sphingosine-1-phosphate receptor 1 (S1P1) (Homo sapiens (Human), UniProt P21453); experiment: Inhibition of cAMP production (HTRF cAMP HiRange), S1P1 CHO-K1 cells; format: cell-based; conditions: for Emax: CHO-K1, read-out: hS1P1 cAMP SPAN; for hS1P1 cAMP pEC50: inhibition of cAMP production, S1P1 CHO-K1 cells
Summary of the method: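 CHO-K1 cells stably co-expressing human S1P1 (C-terminal Prolink tag) and EA-β-arrestin2 were grown in AssayComplete Media 6 at 37° C. and 5% CO2, plated, and incubated overnight. Agonist-driven inhibition of intracellular cAMP was read by TR-FRET with the HTRF cAMP HiRange kit on a PheraStar reader. Potency is pEC50, and efficacy (SPAN) is normalized to fingolimod.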
Target sequence in this assay (P21453 whole entry, looked up): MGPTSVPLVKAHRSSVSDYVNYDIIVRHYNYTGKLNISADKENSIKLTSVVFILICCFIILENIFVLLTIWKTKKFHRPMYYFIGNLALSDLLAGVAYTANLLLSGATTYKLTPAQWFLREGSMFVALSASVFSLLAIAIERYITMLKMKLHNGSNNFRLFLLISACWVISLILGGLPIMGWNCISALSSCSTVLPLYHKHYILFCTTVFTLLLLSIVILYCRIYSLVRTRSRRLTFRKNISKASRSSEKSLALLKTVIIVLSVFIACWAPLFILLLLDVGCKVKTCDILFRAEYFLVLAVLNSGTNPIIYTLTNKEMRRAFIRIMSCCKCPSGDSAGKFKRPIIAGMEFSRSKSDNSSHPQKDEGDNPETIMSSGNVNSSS

[3] = molecular target: human sphingosine-1-phosphate receptor 3 (S1P3) (Homo sapiens (Human), UniProt Q99500); experiment: Inhibition of cAMP production (HTRF), S1P3 CHO-K1 cells; format: cell-based; conditions: for hS1P3 cAMP pEC50: inhibition of cAMP production
Sequence of human sphingosine-1-phosphate receptor 3 (S1P3) (Q99500 whole entry): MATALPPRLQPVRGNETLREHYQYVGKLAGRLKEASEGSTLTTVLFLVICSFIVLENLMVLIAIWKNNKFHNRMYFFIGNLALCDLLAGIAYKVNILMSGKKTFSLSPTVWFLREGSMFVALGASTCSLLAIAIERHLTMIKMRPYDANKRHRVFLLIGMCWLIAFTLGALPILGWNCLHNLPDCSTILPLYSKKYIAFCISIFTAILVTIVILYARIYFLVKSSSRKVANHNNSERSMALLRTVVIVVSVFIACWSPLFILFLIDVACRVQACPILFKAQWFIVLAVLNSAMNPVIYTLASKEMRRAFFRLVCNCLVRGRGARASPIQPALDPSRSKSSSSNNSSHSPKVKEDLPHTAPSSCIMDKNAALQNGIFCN
Description: as §1, §2, §3, §4

[4] = molecular target: human sphingosine-1-phosphate receptor 2 (S1P2) (Homo sapiens (Human), UniProt O95136); experiment: Inositol monophosphate production (IP-one TB kit), S1P2 CHO-K1 cells; format: cell-based; conditions: for hS1P2 IP-one pEC50: inositol monophosphate accumulation
Sequence of human sphingosine-1-phosphate receptor 2 (S1P2) (O95136 whole entry): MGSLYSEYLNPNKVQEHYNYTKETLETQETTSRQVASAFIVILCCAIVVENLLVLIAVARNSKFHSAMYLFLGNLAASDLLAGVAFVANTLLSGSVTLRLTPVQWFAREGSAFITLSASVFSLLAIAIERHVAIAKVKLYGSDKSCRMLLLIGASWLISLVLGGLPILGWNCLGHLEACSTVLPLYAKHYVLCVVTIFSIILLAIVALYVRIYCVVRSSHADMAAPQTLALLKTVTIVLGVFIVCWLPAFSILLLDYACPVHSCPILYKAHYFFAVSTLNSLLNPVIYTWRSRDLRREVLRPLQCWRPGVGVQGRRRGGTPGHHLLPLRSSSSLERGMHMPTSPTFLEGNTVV
Description: as §1, §2
S1P2 Agonist-promoted G-protein responses were determined by measuring changes in intracellular inositol monophosphate using the IP-one TB kit (CisBio, Cat #: 62IPAPEJ) based on time-resolved fluorescence resonance energy transfer (TR-FRET) technology. AssayComplete™ Cell Plating 2 Reagent was removed and replaced with 1× IP-one stimulation buffer (as per manufacturer's instructions) along with test or control compounds at the desired concentrations. Following a 60-minute incubation at 37° C. and 5% CO2 in a humidified CO2 and temperature-controlled incubator, the components of the IP-one TB kit were added as per the manufacturer's instructions. After an hour incubation at room temperature, plates were analyzed by a BMG PheraStar microplate reader.
as §4

[5] = molecular target: T1, human sphingosine-1-phosphate receptor 1 (S1P1); experiment: β-Arrestin2 recruitment assay (PathHunter), S1P1 CHO-K1 cells; format: cell-based; conditions: for Emax: CHO-K1, read-out: hS1P1 B-arrestin2 SPAN; for hS1P1 B-arrestin2 pEC50: β-arrestin2 recruitment, S1P1 CHO-K1 cells
Summary of the method: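 Enzyme-fragment complementation read-out: agonist-driven β-arrestin2 binding to ProLink-tagged human S1P1 in stable CHO-K1 cells restores β-galactosidase, measured 1 h at room temperature after a 60 min 37° C. compound incubation. Potency as pEC50, efficacy relative to fingolimod (SPAN).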
Target sequence in this assay (P21453 whole entry, looked up): as the sequence (P21453 whole entry, looked up) above
Target sequence in this assay (P32121 whole entry partner, looked up): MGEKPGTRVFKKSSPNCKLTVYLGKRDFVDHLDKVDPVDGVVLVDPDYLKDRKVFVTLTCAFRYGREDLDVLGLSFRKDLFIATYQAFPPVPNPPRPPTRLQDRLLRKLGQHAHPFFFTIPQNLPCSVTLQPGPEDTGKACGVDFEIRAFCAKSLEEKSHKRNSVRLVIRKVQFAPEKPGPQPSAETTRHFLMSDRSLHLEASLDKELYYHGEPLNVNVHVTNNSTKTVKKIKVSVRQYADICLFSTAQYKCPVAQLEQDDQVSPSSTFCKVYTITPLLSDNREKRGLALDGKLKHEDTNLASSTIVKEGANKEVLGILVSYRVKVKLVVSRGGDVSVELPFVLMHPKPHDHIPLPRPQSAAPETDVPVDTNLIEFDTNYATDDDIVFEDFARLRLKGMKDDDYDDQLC

[6] = test system: paclitaxel induced peripheral neuropathy; experiment: Reversal of allodynia induced by paclitaxel in mice (s.c. or p.o., von Frey frequency method); format: in vivo, c57bl/6 mice; conditions: Mus musculus, po, 1 h, 3 mg/kg p.o., tested 60 min after dosing, read-out: Screen @ 3 mg/kg po (% MPE)
Description: Compounds were tested for efficacy in mouse models of chemotherapy induced peripheral neuropathy. […] For these studies […]/6 mice are habituated to the test environment and baseline measurements of pain sensitivity are assessed. To determine mechanical responses, the threshold for responses to punctate mechanical stimuli (mechanical hyperalgesia) was tested according to the frequency method. In brief, the plantar surface of the animal hindpaw was stimulated with a single von Frey monofilament (0.4 g) for approximately 1-2 seconds. If there was a withdrawal response, it was recorded as a positive response. A response was defined as a lifting or shaking of the paw upon stimulation. This was repeated ten times for each mouse. The final measurement for each mouse is the % non-response to stimulation for the ten trials. The % non-response to stimulation is converted to a % MPE. For paclitaxel induced peripheral neuropathy, a series of injections of PAC (6 mg/kg, i.p.) on days 1, 3, 5 and 7 is used to induce peripheral neuropathy. After approximately 14 days from the initiation of PAC injections, animals are re-assessed for mechanical sensitivity. […] On test day animals are dosed with compounds either subcutaneously or orally and tested for mechanical response by the frequency method either 30 min (s.c.) or 60 min (p.o.) after drug administration. Data is presented as a % MPE. For oxaliplatin induced peripheral neuropathy, a series of injections of OXA (4 mg/kg, i.p.) on days 1-5 is used to induce peripheral neuropathy. After approximately 14 days from the initiation of PAC injections, animals are re-assessed for mechanical sensitivity. […] On test day animals are dosed with compounds subcutaneously and tested for mechanical response by the frequency method 30 min after drug administration. Data is presented as a % MPE. One or more of the compounds show reversal of chemotherapeutic induced peripheral neuropathy.

[7] = efficacy (SPAN) normalized to fingolimod
[8] = efficacy normalized to fingolimod

Sequence of sphingosine-1-phosphate receptor 5 (S1P5) (Q9H228 whole entry): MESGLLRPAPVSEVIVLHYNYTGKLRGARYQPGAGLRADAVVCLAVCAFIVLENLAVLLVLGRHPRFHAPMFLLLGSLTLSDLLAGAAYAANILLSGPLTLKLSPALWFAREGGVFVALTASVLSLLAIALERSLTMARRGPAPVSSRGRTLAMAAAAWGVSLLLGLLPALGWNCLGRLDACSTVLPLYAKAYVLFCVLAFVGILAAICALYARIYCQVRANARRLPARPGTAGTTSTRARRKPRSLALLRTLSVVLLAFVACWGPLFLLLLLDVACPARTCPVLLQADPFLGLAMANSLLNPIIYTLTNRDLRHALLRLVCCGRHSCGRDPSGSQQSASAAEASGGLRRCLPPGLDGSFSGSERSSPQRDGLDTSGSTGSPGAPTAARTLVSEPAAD

Row | Compound | Emax [2, 7] [%] | hS1P1 cAMP pEC50 [2] | hS1P3 cAMP pEC50 [3] | hS1P2 IP-one pEC50 [4] | Emax [5, 7] [%] | hS1P1 B-arrestin2 pEC50 [5] | inhibition in vivo at 3 mg/kg [6] [%] | further results
1 | C=CCNc1ccc(-c2nc(-c3ccc4[nH]ncc4c3)no2)cc1C#N [Compound 141, 5-(3-(1H-indazol-5-yl)-1,2,4-oxadiazol-5-yl)-2-(allylamino)benzonitrile] | > 75 | >6.5 | >5.0 | <5.0 | > 75 | >5 | – | Emax ([1]; CHO-K1, efficacy normalized to fingolimod, read-out: hS1P5 cAMP SPAN): > 50%; hS1P5 cAMP pEC50 [1]: >5.0; Emax ([3]; CHO-K1, efficacy normalized to fingolimod, read-out: hS1P3 cAMP SPAN): > 50%; Emax ([4]; CHO-K1, efficacy normalized to CYM5520, read-out: hS1P2 IP-one SPAN): < 50%
2 | CCC1(CC)CC(=O)c2cc(-c3nc(-c4ccc5[nH]ncc5c4)no3)ccc2O1 [Compound 152, 6-(3-(1H-indazol-5-yl)-1,2,4-oxadiazol-5-yl)-2,2-diethylchroman-4-one] | – | <6.5 | <5.0 | <5.0 | – | >5 | – | hS1P5 cAMP SPAN [1, 8]: <50; hS1P5 cAMP pEC50 [1]: <5.0; hS1P1 cAMP SPAN [2, 7]: >75; hS1P3 cAMP SPAN [3, 8]: <50; hS1P2 IP-one SPAN ([4]; efficacy normalized to CYM5520): <50; hS1P1 B-arrestin2 SPAN [5, 7]: >75
3 | CC(C)n1nnc2cc(-c3nc4c(o3)Cc3ccccc3-4)ccc21 [Compound 219, 5-{8H-indeno[1,2-d][1,3]oxazol-2-yl}-1-(propan-2-yl)-1H-1,2,3-benzotriazole] | – | >6.5 | <5.0 | >5.0 | – | >5 | – | hS1P5 cAMP pEC50 [1]: <5.0
4 | CC(C)Nc1ccc(-c2nc(-c3ccc4oc(=O)[nH]c4c3)no2)cc1C#N [Compound 422, 2-(isopropylamino)-5-(3-(2-oxo-2,3-dihydrobenzo[d]oxazol-5-yl)-1,2,4-oxadiazol-5-yl)benzonitrile] | – | >6.5 | >5.0 | >5.0 | – | >5 | – | –
5 | CCC1(CC)CC(=O)c2cc(-c3nc(-c4ccc5[nH]c(=O)oc5c4)no3)ccc2O1 [Compound 445, 6-(5-(2,2-diethyl-4-oxochroman-6-yl)-1,2,4-oxadiazol-3-yl)benzo[d]oxazol-2(3H)-one] | – | >6.5 | <5.0 | >5.0 | – | >5 | – | –
6 | CC(C)Nc1ccc(-c2nc(-c3ccc4c(c3)NC(=O)C4)no2)cc1C#N [Compound 496, 2-(isopropylamino)-5-(3-(2-oxoindolin-6-yl)-1,2,4-oxadiazol-5-yl)benzonitrile] | – | >6.5 | <5.0 | <5.0 | – | >5 | – | –
7 | N#Cc1cc(-c2nnc(-c3ccc4[nH]cnc4c3)o2)ccc1NC1CC1 [Compound 598, 5-[5-(1H-1,3-benzodiazol-5-yl)-1,3,4-oxadiazol-2-yl]-2-(cyclopropylamino) benzonitrile] | > 75 | >6.5 | – | – | > 75 | >5 | < 50 | –
8 | N#Cc1cc(-c2nnc(-c3ccc4[nH]cnc4c3)o2)ccc1NC(CF)CF [Compound 600, 5-[5-(1H-1,3-benzodiazol-5-yl)-1,3,4-oxadiazol-2-yl]-2-[(1,3-difluoropropan-2-yl)amino]benzonitrile] | > 75 | >6.5 | – | – | > 75 | >5 | < 50 | –
9 | COc1cnccc1-c1nc(-c2ccc3c(c2)nnn3C(C)C)no1 [Compound 606, 3-(1-isopropyl-1H-benzo[d][1,2,3]triazol-5-yl)-5-(3-methoxypyridin-4-yl)-1,2,4-oxadiazole] | > 75 | >6.5 | – | – | > 75 | >5 | > 50 | –
10 | COc1ncccc1-c1nc(-c2ccc3c(c2)nnn3C(C)C)no1 [Compound 607, 3-(1-isopropyl-1H-benzo[d][1,2,3]triazol-5-yl)-5-(2-methoxypyridin-3-yl)-1,2,4-oxadiazole] | > 75 | >6.5 | – | – | > 75 | >5 | > 50 | –
11 | CC(C)n1nnc2cc(-c3noc(-c4cccc5c4CCC5=O)n3)ccc21 [Compound 608, 4-{3-[1-(propan-2-yl)-1H-1,2,3-benzotriazol-5-yl]-1,2,4-oxadiazol-5-yl}-2,3-dihydro-1H-inden-1-one] | – | >6.5 | – | – | – | >5 | < 50 | –
12 | CC(C)n1nnc2cc(-c3noc(-c4ccccc4N(C)C)n3)ccc21 [Compound 615, N,N-dimethyl-2-{3-[1-(propan-2-yl)-1H-1,2,3-benzotriazol-5-yl]-1,2,4-oxadiazol-5-yl}aniline] | – | >6.5 | – | – | – | >5 | > 50 | –
13 | CC(C)n1nnc2cc(-c3noc(-c4cccc5c4CCC5O)n3)ccc21 (stereo not drawn) [Compound 636, 4-{3-[1-(propan-2-yl)-1H-1,2,3-benzotriazol-5-yl]-1,2,4-oxadiazol-5-yl}-2,3-dihydro-1H-inden-1-ol] | – | >6.5 | – | – | – | >5 | < 50 | –
14 | CC(C)Nc1ccc(-c2nnc(-c3ccc4oc(=O)[nH]c4c3)o2)cc1C#N [Compound 637, 5-[5-(2-oxo-2,3-dihydro-1,3-benzoxazol-5-yl)-1,3,4-oxadiazol-2-yl]-2-[(propan-2-yl)amino]benzonitrile] | – | >6.5 | – | – | – | >5 | > 50 | –
